Source: US20110306639A1, “HYDROCARBYLIDENE NITROHYDROZINECARBOXIMIDAMIDES AND A METHOD FOR MAKING THE SAME, AS WELL AS THEIR USES AS AN INSECTICIDE” (priority 2008, published 2011)
Like-named read-outs stand apart in the source and are kept apart here.

Assays:
myzus persicae = details: in vivo
asparagus caterpillar = details: in vivo

Row | Compound | mortality(%) myzus persicae (600 μg/mL) (myzus persicae) [%] | mortality(%) Helicoverpa armigera (500 μg/mL) (Helicoverpa armigera; 500 μg/mL, 48 hours) [%] | mortality(%) asparagus caterpillar (500 μg/mL) (asparagus caterpillar) [%] | mortality(%) Helicoverpa armigera (500 μg/mL) (Helicoverpa armigera; in vivo) [%] | mortality(%) bemisia tabaci gennadius (500 μg/mL) (bemisia tabaci gennadius; in vivo) [%] | mortality(%) bemisia tabaci gennadius (500 μg/mL) (bemisia tabaci gennadius; 500 μg/mL, 48 hours) [%]
1 | CCCC=NNC(=N[N+](=O)[O-])NCC [Compound 24] | 4.7 | 40 | 0 | – | – | –
2 | C=CCNC(=N[N+](=O)[O-])NN=CC=C(C)CCC=C(C)C [Compound 20] | 5.2 | – | 50 | 0 | – | –
3 | CCC=NNC(=N[N+](=O)[O-])NCCC [Compound 10] | 78.3 | 80 | 20 | – | – | –
4 | CCCCNC(=N[N+](=O)[O-])NN=Cc1ccccc1OC [Compound 74] | 40.4 | 0 | 30 | – | – | –
5 | COc1ccc(C=NNC(=N[N+](=O)[O-])NCc2ccccc2)cc1 [Compound 131] | – | – | – | – | 1.89 | –
6 | C#CCNC(=N[N+](=O)[O-])NN=CC=C(C)CCC=C(C)C [Compound 21] | 12.8 | – | 30 | 20 | – | –
7 | CCOc1ccc(C=NNC(=N[N+](=O)[O-])NCc2ccccc2)cc1OC [Compound 98] | 13.3 | – | 10 | 40 | – | –
8 | CCCC=NNC(=N[N+](=O)[O-])NCCCC [Compound 26] | 65.3 | 20 | 60 | – | – | –
9 | C=CC=NNC(=N[N+](=O)[O-])NCC=C [Compound 42] | 37.1 | 20 | 0 | – | – | –
10 | CC=CC=NNC(=N[N+](=O)[O-])NCc1ccc(Cl)nc1 [Compound 38] | 1.2 | – | 0 | 30 | – | –
11 | C=CCNC(=N[N+](=O)[O-])NN=CC(C)C [Compound 5] | 27.8 | 90 | 30 | – | – | –
12 | CC(C)C=NNC(=N[N+](=O)[O-])NCc1ccccc1 [Compound 7] | 18.4 | 40 | 50 | – | – | –
13 | CCNC(=N[N+](=O)[O-])NN=Cc1ccc(OC)cc1 [Compound 127] | – | – | – | – | 24.56 | –
14 | C#CCNC(=N[N+](=O)[O-])NN=CCCCCCC [Compound 48] | 13.0 | 30 | 0 | – | – | –
15 | CCCCC=NNC(=N[N+](=O)[O-])NCCC [Compound 51] | 13.3 | 30 | 10 | – | – | –
16 | C=CCNC(=N[N+](=O)[O-])NN=CCCCCCC [Compound 47] | 23.7 | 0 | 0 | – | – | –
17 | CCCNC(=N[N+](=O)[O-])NN=Cc1ccc(F)cc1 [Compound 100] | 20.3 | – | 90 | 20 | – | –
18 | C=CCNC(=N[N+](=O)[O-])NN=Cc1ccc(OCC)c(OC)c1 [Compound 99] | 45.8 | – | 30 | 50 | – | –
19 | CNC(=N[N+](=O)[O-])NN=Cc1ccc(N(C)C)cc1 [Compound 120] | – | – | – | – | 82.76 | –
20 | CCNC(=N[N+](=O)[O-])NN=CC(C)C [Compound 2] | 53.6 | 60 | 50 | – | – | –
21 | C=CC=NNC(=N[N+](=O)[O-])NCc1ccccc1 [Compound 44] | 45.8 | 30 | 0 | – | – | –
22 | CNC(=N[N+](=O)[O-])NN=Cc1cccc(Oc2ccccc2)c1 [Compound 118] | – | – | – | – | 14.81 | –
23 | C=CC=NNC(=N[N+](=O)[O-])NCCC [Compound 40] | 8.3 | 30 | 20 | – | – | –
24 | CC=CC=NNC(=N[N+](=O)[O-])NC [Compound 31] | 42.6 | 60 | 10 | – | – | –
25 | CCCNC(=N[N+](=O)[O-])NN=Cc1ccccc1OC [Compound 73] | 20.2 | 50 | 70 | – | – | –
26 | CNC(=N[N+](=O)[O-])NN=CC=C(C)CCC=C(C)C [Compound 16] | 31.4 | – | 70 | 30 | – | –
27 | CNC(=N[N+](=O)[O-])NN=Cc1ccccc1OC [Compound 119] | – | – | – | – | – | 72.00
28 | C=CCNC(=N[N+](=O)[O-])NN=CCCC [Compound 27] | 65.1 | 30 | 40 | – | – | –
